Columns and labels:
[1] = target: T1, MMP-7 (Matrilysin) (Homo sapiens, UniProt P09237); assay: Ki determination with fluorogenic synthetic substrates, recombinant MMP-7; type: biochemical; details: for Ki: Tris/50 mM HCl buffer, pH 6.8, 10 mM CaCl2, 25° C., read-out: affinity constant Ki, MMP-7 Matrilysin; for inhibition at 1 µM: @ 1 μM inhibitor, read-out: percentage of inhibition, MMP-7
T1 construct: made in house; host or cells: E. coli
T1 sequence (P09237 95-267): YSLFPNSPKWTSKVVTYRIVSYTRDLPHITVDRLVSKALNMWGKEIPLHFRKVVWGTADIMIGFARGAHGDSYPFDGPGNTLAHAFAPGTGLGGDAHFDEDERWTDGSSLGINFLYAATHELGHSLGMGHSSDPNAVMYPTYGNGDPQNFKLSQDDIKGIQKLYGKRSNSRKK
Procedure: (§1) The MMPs used were produced in recombinant form, in an E. coli expression system, and then purified using different types of chromatographies. Apart from stromelysin-3 (MMP-11), the MMPs produces correspond to human sequences. The Stromelysin-3 used in this study corresponds to the murine form.
(§2) The activity of each MMP was determined using two fluorogenic synthetic substrates. The cutoff of said substrates, which generates a fluorescent signal proportional to the quantity of split substrate, enables a precise determination of the kinetic parameters. The affinity constants Ki were calculated using the equation of Horowitz et al, Proc. Natl. Acad. Sci. USA, 1987, 84, p. 6654-6658 [14], accounting for the dependency of the percentage of inhibition measured experimentally according to the concentration of inhibitor, as a function of the enzyme and substrate concentration.
(§3) The experiments for conducted in a Tris/50 mM HCl buffer, pH 6.8, 10 mM CaCl2, 25° C.

[2] = target: T2, MMP-9 (Gel-B) (Homo sapiens, UniProt P14780); assay: Ki determination with fluorogenic synthetic substrates, recombinant MMP-9; type: biochemical; details: for Ki: Tris/50 mM HCl buffer, pH 6.8, 10 mM CaCl2, 25° C., read-out: affinity constant Ki, MMP-9 Gel-B
T2 construct: made in house; host or cells: E. coli
Procedure: as §1, §2, §3

[3] = target: T3, MMP-2 (Gel-A) (Homo sapiens, UniProt P08253); assay: Ki determination with fluorogenic synthetic substrates, recombinant MMP-2; type: biochemical; details: for Ki: Tris/50 mM HCl buffer, pH 6.8, 10 mM CaCl2, 25° C., read-out: affinity constant Ki, MMP-2 Gel-A
T3 construct: made in house; host or cells: E. coli
T3 sequence (P08253 110-660): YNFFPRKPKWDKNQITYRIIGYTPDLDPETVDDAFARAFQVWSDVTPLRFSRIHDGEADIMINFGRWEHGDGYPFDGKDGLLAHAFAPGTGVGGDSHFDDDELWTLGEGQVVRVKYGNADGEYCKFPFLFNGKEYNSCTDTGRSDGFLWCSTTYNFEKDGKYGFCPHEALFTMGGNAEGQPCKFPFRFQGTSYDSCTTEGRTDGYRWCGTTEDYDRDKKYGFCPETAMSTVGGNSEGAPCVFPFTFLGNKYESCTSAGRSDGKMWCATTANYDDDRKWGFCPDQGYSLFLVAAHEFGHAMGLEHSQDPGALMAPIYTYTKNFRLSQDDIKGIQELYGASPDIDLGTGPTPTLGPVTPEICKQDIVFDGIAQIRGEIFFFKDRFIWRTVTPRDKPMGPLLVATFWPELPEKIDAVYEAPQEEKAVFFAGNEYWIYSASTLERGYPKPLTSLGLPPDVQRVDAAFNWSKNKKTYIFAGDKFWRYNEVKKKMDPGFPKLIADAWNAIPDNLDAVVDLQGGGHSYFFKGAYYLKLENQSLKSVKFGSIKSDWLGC
Procedure: as §1, §2, §3

[4] = target: T4, MMP-14 (MT1-MMP) (Homo sapiens, UniProt P50281); assay: Ki determination with fluorogenic synthetic substrates, recombinant MMP-14; type: biochemical; details: for Ki: Tris/50 mM HCl buffer, pH 6.8, 10 mM CaCl2, 25° C., read-out: affinity constant Ki, MMP-14 MT1-MMP
T4 construct: made in house; host or cells: E. coli
Procedure: as §1, §2, §3

[5] = target: T5, MMP-1 (HFC) (Homo sapiens, UniProt P03956); assay: Ki determination with fluorogenic synthetic substrates, recombinant MMP-1; type: biochemical; details: for inhibition at 1 µM: @ 1 μM inhibitor, read-out: percentage of inhibition, MMP-1
T5 construct: made in house; host or cells: E. coli
T5 sequence (P03956 100-469): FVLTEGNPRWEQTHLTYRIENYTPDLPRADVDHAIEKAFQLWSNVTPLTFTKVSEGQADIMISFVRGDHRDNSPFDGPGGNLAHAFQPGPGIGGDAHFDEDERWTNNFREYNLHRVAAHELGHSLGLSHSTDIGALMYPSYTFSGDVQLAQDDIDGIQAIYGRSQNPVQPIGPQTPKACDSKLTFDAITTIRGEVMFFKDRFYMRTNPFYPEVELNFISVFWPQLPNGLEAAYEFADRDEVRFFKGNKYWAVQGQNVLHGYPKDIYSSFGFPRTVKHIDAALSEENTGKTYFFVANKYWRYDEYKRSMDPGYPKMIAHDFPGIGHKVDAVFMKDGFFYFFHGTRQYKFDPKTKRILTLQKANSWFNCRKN
Procedure: as §1, §2, §3

[6] = target: T6, MMP-11 (stromelysin-3, mST3) (Mus musculus, UniProt Q02853); assay: Ki determination with fluorogenic synthetic substrates, recombinant MMP-11; type: biochemical, murine; details: for Ki: Tris/50 mM HCl buffer, pH 6.8, 10 mM CaCl2, 25° C., read-out: affinity constant Ki, MMP-11 mST3
T6 construct: made in house; host or cells: E. coli
T6 sequence (Q02853 102-492): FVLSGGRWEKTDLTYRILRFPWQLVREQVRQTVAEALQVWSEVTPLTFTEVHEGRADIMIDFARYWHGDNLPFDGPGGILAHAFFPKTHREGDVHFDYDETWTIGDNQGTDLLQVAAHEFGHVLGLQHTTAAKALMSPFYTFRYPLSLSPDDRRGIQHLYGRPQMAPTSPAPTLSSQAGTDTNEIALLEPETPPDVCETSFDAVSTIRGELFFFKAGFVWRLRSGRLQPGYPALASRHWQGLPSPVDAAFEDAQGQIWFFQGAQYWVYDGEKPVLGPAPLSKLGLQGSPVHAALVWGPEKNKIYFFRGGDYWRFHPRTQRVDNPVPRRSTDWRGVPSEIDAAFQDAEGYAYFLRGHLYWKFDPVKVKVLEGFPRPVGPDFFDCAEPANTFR
Procedure: as §1, §2, §3

[7] = target: T7, MMP-8 (HNC) (Homo sapiens, UniProt P22894); assay: Ki determination with fluorogenic synthetic substrates, recombinant MMP-8; type: biochemical; details: for Ki: Tris/50 mM HCl buffer, pH 6.8, 10 mM CaCl2, 25° C., read-out: affinity constant Ki, MMP-8 HNC
T7 construct: made in house; host or cells: E. coli
Procedure: as §1, §2, §3

T7 sequence (P22894 101-467): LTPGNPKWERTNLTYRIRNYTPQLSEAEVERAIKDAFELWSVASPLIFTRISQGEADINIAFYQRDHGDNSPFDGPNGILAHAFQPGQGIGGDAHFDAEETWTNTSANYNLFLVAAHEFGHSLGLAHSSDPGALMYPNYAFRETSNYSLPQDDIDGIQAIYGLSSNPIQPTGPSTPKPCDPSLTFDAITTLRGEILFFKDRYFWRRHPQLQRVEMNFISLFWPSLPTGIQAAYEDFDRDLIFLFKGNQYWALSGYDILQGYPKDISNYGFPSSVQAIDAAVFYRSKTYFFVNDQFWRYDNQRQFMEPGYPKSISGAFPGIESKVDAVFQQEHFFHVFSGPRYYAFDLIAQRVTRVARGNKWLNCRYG
T2 sequence (P14780 94-707): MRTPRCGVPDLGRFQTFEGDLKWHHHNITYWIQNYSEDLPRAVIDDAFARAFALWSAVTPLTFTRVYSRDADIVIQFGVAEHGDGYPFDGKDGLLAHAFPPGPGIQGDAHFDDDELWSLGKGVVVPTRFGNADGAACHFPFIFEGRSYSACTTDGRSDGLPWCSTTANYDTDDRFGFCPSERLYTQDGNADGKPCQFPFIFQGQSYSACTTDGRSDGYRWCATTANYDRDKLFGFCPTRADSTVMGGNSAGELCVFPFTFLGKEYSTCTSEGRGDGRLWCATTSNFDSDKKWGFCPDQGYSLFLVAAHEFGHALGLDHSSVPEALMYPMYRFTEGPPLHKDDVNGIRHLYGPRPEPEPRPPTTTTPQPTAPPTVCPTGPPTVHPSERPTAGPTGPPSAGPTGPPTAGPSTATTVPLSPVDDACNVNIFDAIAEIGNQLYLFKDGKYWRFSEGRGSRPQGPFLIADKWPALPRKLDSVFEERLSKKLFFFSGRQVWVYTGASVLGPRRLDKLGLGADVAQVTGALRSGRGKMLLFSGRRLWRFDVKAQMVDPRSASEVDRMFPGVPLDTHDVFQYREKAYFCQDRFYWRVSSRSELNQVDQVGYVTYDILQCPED

Row | Compound | Ki [2] | Ki [3] | Ki [4] | Ki [6] | Ki [7] | inhibition at 1 µM [1] | inhibition at 1 µM [5] | other results
1 | NC(=O)C(Cc1c[nH]c2ccccc12)NC(=O)C(CCCc1ccccc1)CP(=O)(O)C(Cc1ccccc1)NC(=O)OCc1ccccc1 (single isomer, unassigned) [Compound 15 S I] | 33 nM | 45 nM | 135 nM | 5 nM | 16 nM |  |  | percentage of inhibition, MMP-7 ([1]; @ 20 mM inhibitor, listed as S I): 59% @ 20 mM; percentage of inhibition, MMP-1 ([5]; @ 2 mM inhibitor, listed as S I): 17% @ 2 mM
2 | CC(C)CC(CP(=O)(O)C(Cc1ccccc1)NC(=O)OCc1ccccc1)C(=O)NC(Cc1c[nH]c2ccccc12)C(N)=O (centres unmarked) [Compound 13] | 65 nM | 202 nM | 192 nM | 22 nM | 40 nM |  |  | Ki [1]: 210 nM; percentage of inhibition, MMP-1 ([5]; @ 2 mM inhibitor): 45% @ 2 mM
3 | NC(=O)C(Cc1c[nH]c2ccccc12)NC(=O)C(CCCCc1ccccc1)CP(=O)(O)C(Cc1ccccc1)NC(=O)OCc1ccccc1 (centres unmarked) [Compound 16] | 70 nM | 145 nM | 580 nM | 33 nM | 4.3 nM |  |  | percentage of inhibition, MMP-7 ([1]; @ 50 mM inhibitor): 65% @ 50 mM; percentage of inhibition, MMP-1 ([5]; @ 2 mM inhibitor): 5% @ 2 mM
4 | COc1ccc(CSCC(CP(=O)(O)C(Cc2ccccc2)NC(=O)OCc2ccccc2)C(=O)NC(Cc2c[nH]c3ccccc23)C(N)=O)cc1 (centres unmarked) [Compound 18] | 3 nM | 6 nM | 22 nM | 2 nM | 0.7 nM |  |  | percentage of inhibition, MMP-7 ([1]; @ 50 mM inhibitor): 84% @ 50 mM; inhibitory power on MMP-9, in words [2]: very powerful inhibitor; inhibitory power on MMP-2, in words [3]: very powerful inhibitor; percentage of inhibition, MMP-1 ([5]; @ 2 mM inhibitor): 13% @ 2 mM; inhibitory power on MMP-11, in words [6]: very powerful inhibitor; inhibitory power on MMP-8, in words [7]: very powerful inhibitor
5 | NC(=O)[C@@H](Cc1c[nH]c2ccccc12)NC(=O)C(CCCc1ccccc1)CP(=O)(O)C(Cc1ccccc1)NC(=O)OCc1ccccc1 (some centres unmarked) [Compound 23] |  |  |  |  |  |  |  | percentage of inhibition, MMP-7 ([1]; @ 50 mM inhibitor): 18% @ 50 mM; percentage of inhibition, MMP-9 ([2]; @ 2 mM inhibitor): 14% @ 2 mM; percentage of inhibition, MMP-2 ([3]; @ 2 mM inhibitor): 6% @ 2 mM; percentage of inhibition, MMP-14 ([4]; @ 10 mM inhibitor): 10% @ 10 mM; percentage of inhibition, MMP-1 ([5]; @ 10 mM inhibitor): 3% @ 10 mM; percentage of inhibition, MMP-11 ([6]; @ 1 mM inhibitor): 1% @ 1 mM; percentage of inhibition, MMP-8 ([7]; @ 1 mM inhibitor): 2% @ 1 mM
6 | CC(=O)NC(Cc1ccccc1)P(=O)(O)CC(CCCc1ccccc1)C(=O)NC(Cc1c[nH]c2ccccc12)C(N)=O (centres unmarked) [Compound 25] | 35 nM | 26 nM | 90 nM | 20 nM | 3.5 nM | 16% | 29% | 
7 | NC(=O)C(Cc1c[nH]c2ccccc12)NC(=O)C(CCCc1ccccc1)CP(=O)(O)C(Cc1ccccc1)NC(=O)COCc1ccccc1 (centres unmarked) [Compound 26] | 10 nM | 8 nM | 40 nM | 5 nM | 2.5 nM | 33% | 28% | 
8 | NC(=O)C(Cc1c[nH]c2ccccc12)NC(=O)C(CCCc1ccccc1)CP(=O)(O)C(Cc1ccccc1)NC(=O)CNc1ccccc1 (centres unmarked) [Compound 27] | 6 nM | 17 nM | 73 nM | 15 nM | 4.5 nM | 16% | 33% | 
9 | NC(=O)C(Cc1c[nH]c2ccccc12)NC(=O)C(CCCc1ccccc1)CP(=O)(O)C(Cc1ccccc1)NC(=O)CNc1cccc(Cl)c1 (centres unmarked) [Compound 28] | 6 nM | 9 nM | 45 nM | 3.8 nM | 4 nM | 25% | 63% | 
10 | NC(=O)C(Cc1c[nH]c2ccccc12)NC(=O)C(CCCc1ccccc1)CP(=O)(O)C(Cc1ccccc1)NC(=O)CNc1cc(Cl)ccc1O (centres unmarked) [Compound 29] | 34 nM | 30 nM | 63 nM | 10 nM | 7.5 nM | 48% | 55% | 
11 | NC(=O)C(Cc1c[nH]c2ccccc12)NC(=O)C(CCCc1ccccc1)CP(=O)(O)C(Cc1ccccc1)NC(=O)c1cc2c(Cl)cc(Cl)cc2[nH]1 (centres unmarked) [Compound 31] | 7 nM | 24 nM | 32 nM | 0.9 nM | 5 nM |  |  | Ki [1]: 117 nM; Ki ([5]; Tris/50 mM HCl buffer, pH 6.8, 10 mM CaCl2, 25° C., read-out: affinity constant Ki, MMP-1 HFC): 36 nM; inhibitory power on MMP-11, in words [6]: very powerful inhibitor
12 | NC(=O)C(Cc1c[nH]c2ccccc12)NC(=O)C(CCCc1ccccc1)CP(=O)(O)C(Cc1ccccc1)NC(=O)c1ccc2ccccc2n1 (centres unmarked) [Compound 32] | 13 nM | 19 nM | 60 nM | 4.2 nM | 5 nM |  | 78% | Ki [1]: 370 nM

Reference: US6630501B1, “Phosphinic pseudo-peptides that may be used as matrix zinc metalloprotease inhibitors” (Commissariat a l'energie Atomique, priority 1999, dated 2003)
